Results: PMC4926359, “Cloning, Expression and 3D Structure Prediction of Chitinase from Chitinolyticbacter meiyuanensis SYBC-H1” (International Journal of Molecular Sciences, 2016)

Test system: CHI2 chitinase
Experiment: p-nitrophenol release at […] nm, Lineweaver-Burk
Assay type: biochemical, Chitinolyticbacter meiyuanensis
Conditions: 50 mM sodium phosphate pH 7.0, 37 °C; substrate range 50-250 μM; unit contradictory in the paper: mM in b32 and b39, µmol/L in abstract b1

## CC(=O)N[C@H]1[C@H](Oc2ccc([N+](=O)[O-])cc2)O[C@H](CO)[C@@H](O)[C@@H]1O [p-NP-GlcNAc]
  Km: 23 mM
